Test results: paper PMC5095062, “The novel choline kinase inhibitor ICL-CCIC-0019 reprograms cellular metabolism and inhibits cancer cell growth” (Oncotarget, 2016)

Experiments:
HCT116 cells [1] = test: Mitochondrial respiration (Seahorse XF24); type: cell-based, human; conditions: 10 μM
Procedure: Extracellular acidification and oxygen consumption rates (ECAR and OCR) were measured in a XF24 extracellular flux analyzer (Seahorse XF24 Extra Cellular Flux Analyzer, North Billerica, MA, USA). Basic XF assay medium was prepared as previously described supplemented with glucose, and the pH adjusted to 7.4 at 37°C. Indicated final concentrations of compounds were obtained by injecting appropriate amounts of compounds dissolved in DMSO or water and diluted in XF assay medium into ports. […] Indicated data points were obtained after 3 min mixing and 2 min wait, followed by 3 min of data collection. Data were normalized to the basal values.

HCT116 cells [2] = test: TMRE mitochondrial membrane potential assay; type: cell-based, human; conditions: 10 μM, 24 h
Procedure: HCT116 cells were cultured as above with indicated inhibitors and subject to the tetramethylrhodamine ethyl ester dye method (TMRE) membrane potential assay according to the manufacturers instruction (Abcam ab113852) prior to FACS analysis.

Q: MN58B [reference compound] was tested. Which “mitochondrial respiration immediately after adding inhibitor (acute effect)” value (HCT116 cells [1]) did it give?
A: decreased mitochondrial respiration

Q: What about the “TMRE-detectable mitochondrial membrane potential” value (HCT116 cells [2]) of the same substance?
A: decreased
